Earlier results, collected in paper PMC7518156 (PeerJ, 2020).
Like-named read-outs stand apart in the source and are kept apart here.

Settings: ref Scheffler et al., 2011, cited from earlier work; for half-life (t1/2): Lu et al., 2006
[1] = oral administration, cancer patients
[2] = oral administration, healthy subjects

| Structure (SMILES) | half-life (t1/2) (cancer patients) | half-life (t1/2) (healthy patients) | Tmax [1] | time to reach maximum concentration (tmax) [2] | F [1] | mean bioavailability (F) [2] |
| --- | --- | --- | --- | --- | --- | --- |
| COc1cc2ncnc(Nc3ccc(F)c(Cl)c3)c2cc1OCCCN1CCOCC1 [GEF, Gefitinib] | ~48 h | about 41 h | about 7 h | 3 h | – | – |
| C#Cc1cccc(Nc2ncnc3cc(OCCOC)c(OCCOC)cc23)c1 [ERL, Erlotinib] | up to 40.9 h | about 24.4 h | 3 h | 1.4 h | 76% | 59% |
